Measurements from PubChem BioAssay AID248 (DTP/NCI, 2004).
“And” between values parts separate entries of the source, which are not always exact repeats. Equal entries are not always repeated. Inconclusive results and toxic doses are left out.

System: L1210 leukemia ip in BDF1 mice, survival T/C
Test: NCI In Vivo Anticancer Drug Screen. Data for tumor model L1210 Leukemia (intraperitoneal) in B6D2F1 (BDF1) mice
Conditions: endpoint: mean survival time, higher = longer survival
In short: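 In this screen, tumor-bearing mice given compound are compared to those given vehicle, and their survival values are reported as a treated-to-control quotient.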

[1] = dose: 100.0 mg/kg/injection, schedule: Q01DX001 (ip), vehicle: saline
[2] = dose: 200.0 mg/kg/injection, schedule: Q01DX001 (ip), vehicle: saline
[3] = dose: 400.0 mg/kg/injection, schedule: Q01DX001 (ip), vehicle: saline
[4] = dose: 100.0 mg/kg/injection, schedule: Q04DX003 (ip), vehicle: saline with Tween-80
[5] = dose: 200.0 mg/kg/injection, schedule: Q04DX003 (ip), vehicle: saline with Tween-80
[6] = dose: 300.0 mg/kg/injection, schedule: Q01DX001 (ip), vehicle: saline
[7] = dose: 100.0 mg/kg/injection, schedule: Q01DX009 (ip), vehicle: Klucel (hydroxypropylcellulose) (HPC)
[8] = dose: 100.0 mg/kg/injection, schedule: Q04DX003 (ip), vehicle: Klucel (hydroxypropylcellulose) (HPC)
[9] = dose: 200.0 mg/kg/injection, schedule: Q01DX009 (ip), vehicle: Klucel (hydroxypropylcellulose) (HPC)
[10] = dose: 200.0 mg/kg/injection, schedule: Q04DX003 (ip), vehicle: Klucel (hydroxypropylcellulose) (HPC)
[11] = dose: 400.0 mg/kg/injection, schedule: Q04DX003 (ip), vehicle: Klucel (hydroxypropylcellulose) (HPC)
[12] = dose: 100.0 mg/kg/injection, schedule: Q01DX009 (ip), vehicle: saline
[13] = dose: 200.0 mg/kg/injection, schedule: Q01DX009 (ip), vehicle: saline
[14] = dose: 400.0 mg/kg/injection, schedule: Q01DX009 (ip), vehicle: saline
[15] = dose: 100.0 mg/kg/injection, schedule: Q04DX002 (ip), vehicle: Klucel (hydroxypropylcellulose) (HPC)
[16] = dose: 200.0 mg/kg/injection, schedule: Q04DX002 (ip), vehicle: saline
[17] = dose: 400.0 mg/kg/injection, schedule: Q04DX002 (ip), vehicle: saline
[18] = dose: 100.0 mg/kg/injection, schedule: Q04DX002 (ip), vehicle: saline
[19] = dose: 100.0 mg/kg/injection, schedule: Q01DX001 (ip), vehicle: carboxymethylcellulose (CMC)
[20] = dose: 200.0 mg/kg/injection, schedule: Q01DX001 (ip), vehicle: carboxymethylcellulose (CMC)
[21] = dose: 400.0 mg/kg/injection, schedule: Q01DX001 (ip), vehicle: carboxymethylcellulose (CMC)

COC(=O)CSc1ncc2cnccn12
T/C (dose: 100.0 mg/kg/injection, schedule: Q01DX009 (ip), vehicle: water): 105 % of control
T/C (dose: 100.0 mg/kg/injection, schedule: Q04DX003 (ip), vehicle: water): 119 % of control
T/C (dose: 200.0 mg/kg/injection, schedule: Q01DX009 (ip), vehicle: water): 98 % of control
T/C (dose: 200.0 mg/kg/injection, schedule: Q04DX003 (ip), vehicle: water): 98 % of control
T/C (dose: 400.0 mg/kg/injection, schedule: Q01DX009 (ip), vehicle: water): 98 % of control
T/C (dose: 400.0 mg/kg/injection, schedule: Q04DX003 (ip), vehicle: water): 104 % of control

O=[N+]([O-])c1ccc(S(=O)(=O)n2cccc2)cc1
T/C (dose: 50.0 mg/kg/injection, schedule: Q01DX001 (ip), vehicle: saline): 98 % of control
T/C [1]: 95 % of control
T/C [2]: 95 % of control
T/C [3]: 98 % of control

CCOC(=O)NCCO
T/C [1]: 103 % of control
T/C [2]: 95 % of control
T/C [3]: 97 % of control

O=C(NCCCl)Nc1cccc(C(F)(F)F)c1
T/C [4]: 104 % of control
T/C [5]: 107 % of control
T/C (dose: 400.0 mg/kg/injection, schedule: Q04DX003 (ip), vehicle: saline with Tween-80): 113 % of control

O=C(O)c1cc([N+](=O)[O-])ccc1Oc1cccc(Cl)c1
T/C (dose: 75.0 mg/kg/injection, schedule: Q01DX001 (ip), vehicle: saline): 96 % of control
T/C (dose: 150.0 mg/kg/injection, schedule: Q01DX001 (ip), vehicle: saline): 95 % of control
T/C [6]: 96 % of control

CC(=O)Oc1cc(C)c(OC(C)=O)c2ccccc12
T/C [7]: 96 % of control
T/C [8]: 96 % of control
T/C [9]: 93 % of control
T/C [10]: 103 % of control
T/C [11]: 96 % of control

CC(Br)C(Br)CO (stereo not given)
T/C [12]: 103 % of control
T/C [13]: 102 % of control
T/C [14]: 100 % of control

CC1(C#N)c2ccccc2C=CN1C(=O)c1ccccc1 (stereo not given)
T/C [7]: 97 % of control
T/C [9]: 95 % of control
T/C (dose: 400.0 mg/kg/injection, schedule: Q01DX009 (ip), vehicle: Klucel (hydroxypropylcellulose) (HPC)): 92 % of control

CC(C)CCCC(C)CCO (stereo not given)
T/C (dose: 50.0 mg/kg/injection, schedule: Q01DX009 (ip), vehicle: saline): 97 % of control
T/C [12]: 105 % of control
T/C [13]: 103 % of control

CCCN(CCC)CCNCC(Cc1ccccc1)c1ccccc1 (stereo not given)
T/C (dose: 50.0 mg/kg/injection, schedule: Q04DX002 (ip), vehicle: Klucel (hydroxypropylcellulose) (HPC)): 99 % of control
T/C [15]: 99 % of control

CC(=O)Nc1ccc(OC(=S)N(C)C)cc1
T/C [8]: 96 % of control
T/C [10]: 97 % of control
T/C [11]: 101 % of control

CCCC1(CN2c3ccccc3Sc3ccc(Cl)cc32)CCN(CC)C1 (stereo not given)
T/C (dose: 100.0 mg/kg/injection, schedule: Q04DX003 (ip), vehicle: saline): 90 % of control

O=c1[nH]c2ccccc2o1
T/C (dose: 75.0 mg/kg/injection, schedule: Q01DX001 (ip), vehicle: Klucel (hydroxypropylcellulose) (HPC)): 101 % of control
T/C (dose: 150.0 mg/kg/injection, schedule: Q01DX001 (ip), vehicle: Klucel (hydroxypropylcellulose) (HPC)): 100 % of control
T/C [16]: 92 % of control
T/C (dose: 300.0 mg/kg/injection, schedule: Q01DX001 (ip), vehicle: Klucel (hydroxypropylcellulose) (HPC)): 103 % of control
T/C [17]: 114 % of control

COc1cc(CCl)c(CCl)c(OC)c1OC
T/C (dose: 75.0 mg/kg/injection, schedule: Q01DX001 (ip), vehicle: carboxymethylcellulose (CMC)): 96 % of control
T/C (dose: 150.0 mg/kg/injection, schedule: Q01DX001 (ip), vehicle: carboxymethylcellulose (CMC)): 95 % of control
T/C (dose: 300.0 mg/kg/injection, schedule: Q01DX001 (ip), vehicle: carboxymethylcellulose (CMC)): 93 % of control

O=C(O)COc1ccc(F)c(Cl)c1
T/C [18]: 105 % of control
T/C [16]: 117 % of control
T/C [17]: 110 % of control

OC1(c2ccccc2)c2ccccc2C(O)(c2ccccc2)c2cc3c(cc21)CCCC3 (stereo not given)
T/C [15]: 102 % of control
T/C (dose: 200.0 mg/kg/injection, schedule: Q04DX002 (ip), vehicle: Klucel (hydroxypropylcellulose) (HPC)): 91 % of control
T/C (dose: 400.0 mg/kg/injection, schedule: Q04DX002 (ip), vehicle: Klucel (hydroxypropylcellulose) (HPC)): 91 % of control

CCCCCCCCCCC(C1CCCC2CCCCC21)C1CCCC2CCCCC21 (stereo not given)
T/C [19]: 100 % of control
T/C [20]: 102 % of control
T/C [21]: 94 % of control

CCS(=O)(=O)/C=C/c1ccncc1
T/C (dose: 25.0 mg/kg/injection, schedule: Q04DX002 (ip), vehicle: saline): 104 % of control
T/C (dose: 50.0 mg/kg/injection, schedule: Q04DX002 (ip), vehicle: saline): 101 % of control
T/C [18]: 111 % of control and 113 % of control

COC(=O)c1[nH]cnc1/N=N/N(C)CCO
T/C (dose: 88.0 mg/kg/injection, schedule: Q01DX001 (ip), vehicle: saline): 95 % of control
T/C [1]: 104 % of control
T/C (dose: 133.0 mg/kg/injection, schedule: Q01DX001 (ip), vehicle: saline): 97 % of control
T/C [2]: 101 % of control and 107 % of control
T/C (dose: 267.0 mg/kg/injection, schedule: Q01DX009 (ip), vehicle: saline): 109 % of control
T/C [6]: 103 % of control
T/C [3]: 102 % of control
T/C [14]: 100 % of control
T/C (dose: 600.0 mg/kg/injection, schedule: Q01DX009 (ip), vehicle: saline): 109 % of control
T/C (dose: 600.0 mg/kg/injection, schedule: Q01DX015 (ip), vehicle: saline): 157 % of control
T/C (dose: 900.0 mg/kg/injection, schedule: Q01DX009 (ip), vehicle: saline): 111 % of control

CCOP(=S)(OCC)SC(C)C
T/C [4]: 97 % of control
T/C [5]: 97 % of control

CC(=O)c1ccc2ccc3cccc4ccc1c2c34
T/C (dose: 100.0 mg/kg/injection, schedule: Q04DX002 (ip), vehicle: gum acacia): 96 % of control
T/C (dose: 200.0 mg/kg/injection, schedule: Q04DX002 (ip), vehicle: gum acacia): 96 % of control
T/C (dose: 400.0 mg/kg/injection, schedule: Q04DX002 (ip), vehicle: gum acacia): 93 % of control

O=C(OCCCCOC(=O)c1cccc([N+](=O)[O-])c1)c1cccc([N+](=O)[O-])c1
T/C (dose: 3.12 mg/kg/injection, schedule: Q01DX009 (ip), vehicle: saline with Tween-80): 95 % of control
T/C (dose: 6.25 mg/kg/injection, schedule: Q01DX009 (ip), vehicle: saline with Tween-80): 100 % of control
T/C (dose: 12.5 mg/kg/injection, schedule: Q01DX009 (ip), vehicle: saline with Tween-80): 97 % of control
T/C (dose: 100.0 mg/kg/injection, schedule: Q01DX001 (ip), vehicle: other): 102 % of control
T/C (dose: 200.0 mg/kg/injection, schedule: Q01DX001 (ip), vehicle: other): 95 % of control
T/C (dose: 400.0 mg/kg/injection, schedule: Q01DX001 (ip), vehicle: other): 93 % of control

Cn1c2c(c3ccccc3c1=O)C(=O)c1ccccc1-2
T/C (dose: 50.0 mg/kg/injection, schedule: Q01DX001 (ip), vehicle: carboxymethylcellulose (CMC)): 94 % of control
T/C [19]: 94 % of control
T/C [20]: 91 % of control
T/C [21]: 91 % of control
